Assay results from PubChem BioAssay (NCI).
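Assay format: 96-well plates, 48-hour exposure. GI50 marks 50% less growth. TGI marks complete inhibition of growth.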

Experiments:
Assay in all cases: NCI tumour cell line growth inhibition, 48 h
DU-145 prostate = system: DU-145 prostate
HS 578T breast = system: HS 578T breast
MCF7 breast = system: MCF7 breast
MDA-N = system: MDA-N
DLD-1 colon = system: DLD-1 colon
HOP-18 NSCLC = system: HOP-18 NSCLC
LXFL 529 NSCLC = system: LXFL 529 NSCLC
XF 498 CNS = system: XF 498 CNS
RXF-631 renal = system: RXF-631 renal

| SMILES | TGI (DLD-1 colon) [µM] | TGI (HOP-18 NSCLC) [µM] | TGI (LXFL 529 NSCLC) [µM] | TGI (XF 498 CNS) [µM] | TGI (RXF-631 renal) [µM] | other results |
| --- | --- | --- | --- | --- | --- | --- |
| CCOP(=O)(Nc1ccc2oc(=O)c3ccccc3c2c1)OCC | – | – | – | – | – | TGI (DU-145 prostate): > 100 µM; TGI (HS 578T breast): > 100 µM; TGI (MCF7 breast): > 100 µM; TGI (MDA-N): > 100 µM |
| N[C@@H]1CCCC[C@@H]1N.O=P([O-])([O-])CN(CP(=O)([O-])[O-])CP(=O)([O-])[O-].[Pt+2] | > 100 | > 100 | > 100 | > 100 | – | GI50 (DLD-1 colon): > 100 µM; GI50 (HOP-18 NSCLC): > 100 µM; GI50 (LXFL 529 NSCLC): > 100 µM; GI50 (XF 498 CNS): > 100 µM |
| CCCCCCCCCCCCCCCCOC(=O)c1cc(O)cc(C(=O)OCCCCCCCCCCCCCCCC)c1 | – | > 100 | > 100 | – | > 100 | – |
| O=C1c2ccccc2C(=O)c2nc3ccc(Cl)cc3cc21 | > 100 | – | > 100 | > 100 | > 100 | – |
| CCSC(SCC)=C1C(=O)N(c2ccccc2)N=C1C | 26.8 | 29.4 | 22.6 | 22.7 | – | – |
| COC(=O)/C(=N/NC(N)=O)C(C(=O)OC)C(=O)C(=O)Nc1ccc(Cl)cc1 (stereo not drawn) | > 100 | > 100 | > 100 | > 100 | – | – |
| COc1ccc(CCN=C2CCC(C(=O)NCCc3ccc(OC)c(OC)c3)N2)cc1OC (stereo not drawn) | > 100 | > 100 | > 100 | > 100 | > 100 | – |
| COc1ccccc1NC(=O)C(CC(C(=O)Nc1ccccc1OC)/C(C)=N/Nc1ccc([N+](=O)[O-])cc1[N+](=O)[O-])/C(C)=N/Nc1ccc([N+](=O)[O-])cc1[N+](=O)[O-] (stereo not drawn) | > 100 | > 100 | > 100 | > 100 | > 100 | – |
| CCOC(=O)C(NC(=O)c1[nH]cnc1/N=N/N(C)C)C(C)C (stereo not drawn) | > 100 | – | > 100 | – | – | – |
| C[C@]12CC[C@H](OC3CCCCO3)CC1=CC[C@@H]1C2CC[C@]2(C)/C(=N/O)CCC12 (stereo partly drawn) | > 100 | 30.5 | 45.6 | 68.6 | – | – |
| COc1cc(/C=C(\C#N)C(N)=C(C#N)C#N)cc(O)c1O | > 100 | – | > 100 | > 100 | – | TGI (DU-145 prostate): > 100 µM; TGI (HS 578T breast): > 100 µM; TGI (MCF7 breast): > 100 µM; TGI (MDA-N): > 100 µM |
| COc1nc(NC2OC(COC(C)=O)C(OC(C)=O)C(OC(C)=O)C2OC(C)=O)c(-c2csc(N)n2)c(=O)n1C (stereo not drawn) | > 100 | > 100 | > 100 | – | – | – |
| O=C1CN(/N=C/c2ccc(-c3ccc(F)cc3)o2)C(=O)N1 | – | – | – | – | – | TGI (DU-145 prostate): > 100 µM; TGI (HS 578T breast): > 100 µM; TGI (MCF7 breast): > 100 µM; TGI (MDA-N): 38.6 µM |
| CC(NC(=O)c1ccccc1)(C(=O)O)C(=O)O | – | – | – | – | – | TGI (DU-145 prostate): > 100 µM; TGI (HS 578T breast): > 100 µM; TGI (MCF7 breast): > 100 µM; TGI (MDA-N): > 100 µM |
| CCOC(=O)C1COc2cc(-c3cc(=O)c4ccccc4o3)ccc2O1 (stereo not drawn) | > 100 | – | > 100 | 96.9 | – | – |
| CNC(=O)CN(CC(N)=O)C(N)=O | > 100 | – | > 100 | > 100 | > 100 | – |
| CCOC(=O)[C@H]1Nc2ccccc2C2c3ccccc3CC21 (stereo partly drawn) | > 100 | – | > 100 | > 100 | > 100 | – |
| O=c1cc(-c2ccccn2)[nH]c2ccc(Cl)cc12 | > 100 | > 100 | > 100 | > 100 | – | – |
| CCCCCCCCCCCCCc1nn[nH]n1 | 31.8 | 28.2 | 31.2 | – | 29.3 | – |
| CC1CC[C@]2(C(=O)O)CCC3(C)C(=CCC4[C@@]5(C)CC[C@H](OS(=O)(=O)c6ccccc6)C(C)(C)C5CC[C@]43C)[C@@H]2[C@H]1C (stereo partly drawn) | > 100 | > 100 | > 100 | > 100 | > 100 | – |
| Cc1ccc(NC(=O)CC(=O)N2N=C(N(CCC#N)c3cccc(C)c3)CC2c2ccccc2)cc1 (stereo not drawn) | > 100 | > 100 | > 100 | – | – | – |
| O=S(=O)(c1ccc(O)c(C=Nc2ccc(Cl)cc2)c1)c1ccc(O)c(C=Nc2ccc(Cl)cc2)c1 | > 100 | > 100 | > 100 | – | > 100 | – |
| COc1cnc2cc(C(=O)O)c3ccccc3c2c1 | – | – | – | – | – | TGI (DU-145 prostate): > 100 µM; TGI (HS 578T breast): > 100 µM; TGI (MCF7 breast): > 100 µM; TGI (MDA-N): > 100 µM |
| CCCCCCCCCCCCOP(N)(=O)OCCCCCCCCCCCC | > 100 | – | > 100 | – | – | – |
| Cc1cc(Cl)cc2c1NC(=O)C2=O (tested in a mixture with another compound) | > 100 | > 100 | > 100 | 62.4 | – | – |
| COc1ccc(C2CCc3cc4c(cc3/C2=N/OC(C)=O)OCO4)cc1OC (stereo not drawn) | – | > 100 | > 100 | 57.5 | > 100 | – |
| Cc1c(C(=O)CSc2nc3ccccc3[nH]2)c(=O)n(-c2ccccc2)n1C | > 100 | – | > 100 | > 100 | – | – |
| CN(C=O)/C=C/c1cc(O)ccc1O | 39.4 | 31.4 | 33.6 | – | > 100 | TGI (DU-145 prostate): > 100 µM |
| O=C(Cc1ccccc1)NN1C(=O)/C(=C\c2ccc(O)cc2)SC1=Nc1ccccc1 | – | – | – | – | – | TGI (DU-145 prostate): > 100 µM; TGI (HS 578T breast): > 100 µM; TGI (MCF7 breast): > 100 µM; TGI (MDA-N): > 100 µM |
